Experiment in all cases: ≥ marks a high value that may be exact or a test limit, other limits are often not marked, values filed in µg/mL are converted to µM
The subject of test [1] is Staphylococcus xylosus DSM 20267.
For test [2], the system named is Franconibacter helveticus DSM 18390.
In test [3] the test system is Escherichia coli DSM 1116.
The test system of test [4] is Enterococcus faecalis NCTC 12697.
For test [5], the system named is Staphylococcus aureus NCTC 12493.
Test [6] concerns Candida albicans NCTC 1467.
The subject of test [7] is Klebsiella pneumoniae ATCC 43816.
Test [8] deals with Staphylococcus aureus NCTC 10788.
For test [9], the system named is Pseudomonas aeruginosa ATCC 27853.
Test [10] deals with Escherichia coli NCTC 10418.
The test system of test [11] is Staphylococcus epidermidis.
The subject of test [12] is Staphylococcus aureus.
Test [13] deals with Staphylococcus aureus FDA486.
Test [14] relates to Staphylococcus aureus ATCC 29213.
Test [15] relates to Staphylococcus aureus FusA88700.
Test [16] concerns Escherichia coli BL21.
The subject of test [17] is Escherichia coli MG1655.

In brackets after ≈: the same amount, converted by molar mass. Several values for one entry are separate records, joined by “and”; a condition that tells them apart may be missing. Equal values may be shown once.

These results are taken from DBAASP.

For `CC(C)C[C@H](NC(=O)[C@H](CCCCN)NC(=O)[C@H](CC(C)C)NC(=O)[C@H](CCCCN)NC(=O)[C@H](CC(C)C)NC(=O)[C@H](CCCCN)NC(=O)[C@H](CC(C)C)NC(=O)[C@H](CCCCN)NC(=O)[C@H](CC(C)C)NC(=O)[C@@H](N)CCCCN)C(N)=O` [KLKLKLKLKL], the minimal inhibitory concentration (MIC) in test [1] was 1.63 µM (≈ 2 µg/mL); in test [2], 3.27 µM and 1.63 µM; in [3], 6.53 µM and 3.27 µM.

For the compound `CSCC[C@H](NC(=O)[C@H](CCC(=O)O)NC(=O)[C@H](CCCCN)NC(=O)[C@H](CC(C)C)NC(=O)[C@H](CCCCN)NC(=O)CNC(=O)[C@H](Cc1c[nH]c2ccccc12)NC(=O)[C@H](CC(C)C)NC(=O)[C@@H](N)CO)C(=O)N[C@@H](C)C(=O)N[C@@H](C)C(=O)N[C@@H](C)C(=O)N[C@@H](C)C(=O)NCC(=O)N[C@@H](CCCCN)C(=O)N[C@@H](C)C(=O)N[C@@H](C)C(=O)N[C@@H](CC(C)C)C(=O)N[C@@H](CC(N)=O)C(=O)N[C@@H](C)C(=O)N[C@H](C(=O)N[C@@H](CC(N)=O)C(=O)NCC(=O)N[C@@H](CC(C)C)C(=O)N[C@H](C(=O)N[C@@H](CC(N)=O)C(=O)N[C@@H](CCC(N)=O)C(N)=O)C(C)C)C(C)C` [SLWGKLKEMAAAAGKAALNAVNGLVNQ], the MIC was ≥ 32 µM in test [4]; ≥ 32 µM in test [5]; ≥ 64 µM in [6]; ≥ 32 µM in [7]; 8 µM (≈ 21.8 µg/mL) in test [8]; 64 µM (≈ 174 µg/mL) in test [9]. For the same compound, the minimal inhibitory concentration (MIC) in test [10] amounted to 8 µM (≈ 21.8 µg/mL).

`CC[C@H](C)[C@H](NC(=O)[C@H](CCCCN)NC(=O)[C@H](CCCN=C(N)N)NC(=O)[C@H](CCCCN)NC(=O)[C@H](CCCCN)NC(=O)[C@H](CCCCN)NC(=O)[C@H](Cc1c[nH]c2ccccc12)NC(=O)[C@H](CCCCN)NC(=O)[C@@H](NC(=O)[C@H](CC(C)C)NC(=O)[C@H](Cc1c[nH]c2ccccc12)NC(=O)[C@H](CCCN=C(N)N)NC(=O)[C@H](CC(=O)O)NC(=O)[C@H](CCSC)NC(C)=O)C(C)C)C(=O)N[C@@H](CCCN=C(N)N)C(=O)N[C@@H](CCCN=C(N)N)C(=O)N[C@@H](CCCN=C(N)N)C(=O)N[C@@H](CCCN=C(N)N)C(=O)N[C@@H](CCCN=C(N)N)C(=O)N[C@@H](CCCN=C(N)N)C(=O)N[C@@H](CCCN=C(N)N)C(=O)N[C@@H](CCCN=C(N)N)C(=O)N[C@@H](CCCN=C(N)N)C(=O)N[C@@H](CCCN=C(N)N)C(=O)N[C@@H](CCCN=C(N)N)C(N)=O` [MDRWLVKWKKKRKIRRRRRRRRRRR]: the minimum inhibitory concentration (MIC) in [11] came out at 3 µM (≈ 11 µg/mL); in test [12] it was 3 µM (≈ 11 µg/mL); in test [13] it was 3 µM (≈ 11 µg/mL); in test [14] it was 3 µM (≈ 11 µg/mL); in test [15], 3 µM (≈ 11 µg/mL); in test [16], 5 µM (≈ 18.4 µg/mL). This compound yielded an MIC in [17] of 11 µM (≈ 40.4 µg/mL).
